Data from patent US20240108654A1, “COMBINATION OF A T CELL THERAPY AND A DGK INHIBITOR” (Juno Therapeutics, Inc., priority 2021, published 2024).

How the values were obtained:
Assay type in all cases: cell-based, human
anti-HPV16 eTCR T cells = assay: Rescue treatment of chronically stimulated eTCR T cells: cytolytic function against HPV-expressing CaSki cells; details: 100 nM compound during co-culture, 2.5:1 effector:target; eTCR cells pre-stimulated with 10 or 20 μg/mL anti-Vbeta
From the text: Primary human CD4+ and CD8+ T cells were isolated from healthy donors by immunoaffinity-based methods. The isolated CD4+ and CD8+ T cells were combined and stimulated with an anti-CD3/anti-CD28 reagent, and then were transduced with a lentiviral vector encoding an anti-human papillomavirus 16 (anti-HPV16) eTCR. The nucleotide sequences encoding the beta chain and the alpha chain of the eTCR were separated by a sequence encoding a 2A ribosome skip element. Following transduction, the cells were cultured in media containing human serum and cytokines for 9-10 days prior to further assessment. To assess the effects of rescue treatment with Compound 17 on cytolytic function, eTCR cells were stimulated for six days using 10 μg/mL or 20 μg/mL plate-bound antibody against the TCR Vbeta chain in the absence of Compound 17. Following chronic stimulation, the eTCR-T cells were co-cultured with HPV-expressing CaSki cells at a 2.5:1 effector:target ratio in the presence of Compound 17 at 100 nM. As a control, chronically stimulated eTCR cells were co-cultured with CaSki cells in the absence of Compound 17. The CaSki cells were transduced with NucLight Red (NLR) and tumor cell number was monitored by Incucyte®.

[1] = system: anti-CD19 CAR-expressing T cells; assay: Cytokine production (MSD) in co-culture of CAR-T cells and CD19-expressing tumor cells in presence of compound; details: 48 hours co-culture with K562.CD19, Granta-519, Raji cells, compound present
Method: Supernatant was collected after 48 hours from the above co-cultures of CAR-expressing T cells and CD19-expressing tumor cells in the presence of Compound 17. Cytokine production was measured from the supernatant by meso scale discovery (MSD) analysis of the collected cell supernatants.

[2] = system: anti-CD19 CAR-expressing T cells; assay: Rescue treatment of chronically stimulated CAR-T cells: cytolytic activity, 3D tumor spheroids; details: rescue treatment during co-culture; A549.CD19 and Granta-519 spheroids, day 9
Method: Anti-CD19 CAR-expressing T cells, produced as described in Example 1, were chronically stimulated with plate-bound CAR-specific anti-idiotypic antibody for seven days as described in Example 2, but in the absence of Compound 17 during chronic stimulation. Instead, chronically stimulated CAR T cells were treated with Compound 17 during re-challenge with CD19-expressing tumor cells, after which cytolytic activity and cytokine production were assessed.
Cytolytic activity also was assessed in CD19-expressing tumor spheroid cultures incubated with chronically stimulated CAR-T cells in the presence of DGKi. A549 CD19+ tumor spheroids or Granta-519 tumor spheroids were incubated with the anti-CD19 CAR-expressing T cells at an effector to target ratio of 1:2 for up to 14 days in the presence of DGKi (0-1000 nM). The tumor spheroids were engineered to express a red fluorescent dye to permit monitoring of tumor cell lysis by microscopy during the assay. Cytolytic activity was assessed by monitoring fluorescence over time, and the tumor volume (normalized to time zero) was measured as the number of red calibrated units (RCU)×μm^2 area. […] Duplicate values for cell compositions manufactured from the two different healthy donors are shown.

Q: With CC[C@H]1CN([C@@H](CC)c2ccc(C(F)(F)F)cc2)[C@H](CC)CN1c1nc(=O)n(C)c2ccc(C#N)nc12 [Compound 17, 4-((2S,5R)-2,5-diethyl-4-((S)-1-(4-(trifluoromethyl)phenyl)propyl)piperazin-1-yl)-1-methyl-2-oxo-1,2-dihydropyrido[3,2-d]pyrimidine-6-carbonitrile] as the compound, how does the “cytolytic function of chronically stimulated eTCR cells (CaSki tumor cell number)” value (anti-HPV16 eTCR T cells) read?
A: The value was “able to improve cytolytic function”.

Q: And the “production of IFNγ, IL-2 and TNFα in supernatant” value [1]?
A: The value was “dose-dependent increase in production of all three cytokines”.

Q: What about the “CAR-T cell cytolytic activity (normalized tumor volume)” value [2] of the same compound?
A: Its value is “improved the cytolytic activity”.
